Results taken from the NIST ThermoML archive (doi:10.1021/je900719z).

Conditions: Liquid, Ebulliometric method (Recirculating still)

O [water]
Conditions | vapor or sublimation pressure [kPa]
333.02 K | 19.55
333.56 K | 20.05
334.08 K | 20.55
334.59 K | 21.05
335.15 K | 21.6
335.64 K | 22.1
336.11 K | 22.6
336.66 K | 23.15
337.12 K | 23.65
337.65 K | 24.22
338.13 K | 24.75
338.6 K | 25.3
339.12 K | 25.9
339.62 K | 26.45
340.15 K | 27.1
340.63 K | 27.7
341.25 K | 28.45
341.67 K | 29
342.13 K | 29.6
342.71 K | 30.33
343.17 K | 30.95
343.73 K | 31.72
344.21 K | 32.4
344.73 K | 33.15
345.22 K | 33.85
345.66 K | 34.5
346.11 K | 35.15
346.61 K | 35.9
347.15 K | 36.75
347.62 K | 37.5
348.15 K | 38.32
348.22 K | 38.47
348.65 K | 39.18
349.17 K | 40.04
349.68 K | 40.88
350.22 K | 41.85
350.66 K | 42.59
351.18 K | 43.5
351.67 K | 44.39
352.13 K | 45.28
352.64 K | 46.19
353.13 K | 47.14
353.65 K | 48.15
354.12 K | 49.06
354.63 K | 50.07
355.13 K | 51.1
355.71 K | 52.36
356.14 K | 53.24
356.65 K | 54.34
357.13 K | 55.42
357.69 K | 56.64
358.16 K | 57.69
358.65 K | 58.78
359.19 K | 60.08
359.62 K | 61.09
360.26 K | 62.64
360.74 K | 63.82
361.2 K | 64.95
361.61 K | 65.98
362.13 K | 67.33
362.71 K | 68.85
363.17 K | 70.05
363.72 K | 71.54
364.28 K | 73.07
364.75 K | 74.38
365.34 K | 76.08
365.84 K | 77.53
366.34 K | 78.95
366.86 K | 80.58
367.35 K | 82.03
367.83 K | 83.48
368.33 K | 85.04
368.8 K | 86.54
369.27 K | 88.07
369.69 K | 89.44
370.03 K | 90.54
370.62 K | 92.52
371.09 K | 94.12
371.52 K | 95.59
371.94 K | 97.02
372.36 K | 98.48
372.78 K | 100.03
373.16 K | 101.39
373.59 K | 103
374 K | 104.48
374.39 K | 105.94
374.82 K | 107.57
375.18 K | 108.97
375.6 K | 110.58
376.1 K | 112.55
376.46 K | 113.99
376.86 K | 115.58
377.21 K | 117.02
377.57 K | 118.54
377.92 K | 119.94
378.29 K | 121.58
378.65 K | 123.07
378.99 K | 124.48
379.33 K | 126.01
379.71 K | 127.64
380 K | 128.92
380.36 K | 130.53
380.74 K | 132.25

CCO [ethanol]
Conditions | vapor or sublimation pressure [kPa]
325.48 K | 33
326.03 K | 33.9
326.48 K | 34.6
326.93 K | 35.3
327.33 K | 36
327.8 K | 36.8
328.26 K | 37.6
328.73 K | 38.4
329.18 K | 39.2
329.62 K | 40
330.11 K | 40.9
330.62 K | 41.9
331.16 K | 42.9
331.66 K | 43.9
332.17 K | 44.9
332.68 K | 45.9
333.15 K | 46.9
333.86 K | 48.4
334.55 K | 49.9
335.17 K | 51.3
335.84 K | 52.8
336.28 K | 53.85
336.81 K | 55.13
337.31 K | 56.32
337.86 K | 57.69
338.32 K | 58.87
338.97 K | 60.49
339.47 K | 61.82
339.99 K | 63.19
340.47 K | 64.47
340.82 K | 65.48
341.18 K | 66.45
341.68 K | 67.91
342.01 K | 68.92
342.53 K | 70.35
343.05 K | 71.88
343.54 K | 73.35
343.97 K | 74.68
344.41 K | 76.08
344.93 K | 77.68
345.3 K | 78.95
345.77 K | 80.44
346.17 K | 81.82
346.75 K | 83.74
347.17 K | 85.17
347.51 K | 86.38
347.91 K | 87.78
348.29 K | 89.17
348.62 K | 90.34
349.03 K | 91.82
349.36 K | 93.08
349.67 K | 94.24
350.05 K | 95.68
350.44 K | 97.16
350.82 K | 98.63
351.17 K | 100.02
351.51 K | 101.38
351.76 K | 102.37
352.07 K | 103.64
352.45 K | 105.17
352.79 K | 106.59
353.15 K | 108.08
353.5 K | 109.58
353.79 K | 110.8
354.14 K | 112.36
354.46 K | 113.75
354.82 K | 115.35
355.15 K | 116.81
355.51 K | 118.44
355.85 K | 120.01
356.22 K | 121.68
356.54 K | 123.23
356.81 K | 124.46
357.16 K | 126.16
357.48 K | 127.68
357.89 K | 129.67
